Source: article PMC7663272, “Discovery of Tricyclic Pyranochromenone as Novel Bruton’s Tyrosine Kinase Inhibitors with In Vivo Antirheumatic Activity” (International Journal of Molecular Sciences, 2020)

Assays:
JAK3 = target: T1, JAK3 (Homo sapiens, UniProt P52333); experiment: HotSpot kinase enzymatic assay, JAK3; type: biochemical
T1 construct: purchased Reaction Biology Corporation
T1 sequence (P52333 1-1124): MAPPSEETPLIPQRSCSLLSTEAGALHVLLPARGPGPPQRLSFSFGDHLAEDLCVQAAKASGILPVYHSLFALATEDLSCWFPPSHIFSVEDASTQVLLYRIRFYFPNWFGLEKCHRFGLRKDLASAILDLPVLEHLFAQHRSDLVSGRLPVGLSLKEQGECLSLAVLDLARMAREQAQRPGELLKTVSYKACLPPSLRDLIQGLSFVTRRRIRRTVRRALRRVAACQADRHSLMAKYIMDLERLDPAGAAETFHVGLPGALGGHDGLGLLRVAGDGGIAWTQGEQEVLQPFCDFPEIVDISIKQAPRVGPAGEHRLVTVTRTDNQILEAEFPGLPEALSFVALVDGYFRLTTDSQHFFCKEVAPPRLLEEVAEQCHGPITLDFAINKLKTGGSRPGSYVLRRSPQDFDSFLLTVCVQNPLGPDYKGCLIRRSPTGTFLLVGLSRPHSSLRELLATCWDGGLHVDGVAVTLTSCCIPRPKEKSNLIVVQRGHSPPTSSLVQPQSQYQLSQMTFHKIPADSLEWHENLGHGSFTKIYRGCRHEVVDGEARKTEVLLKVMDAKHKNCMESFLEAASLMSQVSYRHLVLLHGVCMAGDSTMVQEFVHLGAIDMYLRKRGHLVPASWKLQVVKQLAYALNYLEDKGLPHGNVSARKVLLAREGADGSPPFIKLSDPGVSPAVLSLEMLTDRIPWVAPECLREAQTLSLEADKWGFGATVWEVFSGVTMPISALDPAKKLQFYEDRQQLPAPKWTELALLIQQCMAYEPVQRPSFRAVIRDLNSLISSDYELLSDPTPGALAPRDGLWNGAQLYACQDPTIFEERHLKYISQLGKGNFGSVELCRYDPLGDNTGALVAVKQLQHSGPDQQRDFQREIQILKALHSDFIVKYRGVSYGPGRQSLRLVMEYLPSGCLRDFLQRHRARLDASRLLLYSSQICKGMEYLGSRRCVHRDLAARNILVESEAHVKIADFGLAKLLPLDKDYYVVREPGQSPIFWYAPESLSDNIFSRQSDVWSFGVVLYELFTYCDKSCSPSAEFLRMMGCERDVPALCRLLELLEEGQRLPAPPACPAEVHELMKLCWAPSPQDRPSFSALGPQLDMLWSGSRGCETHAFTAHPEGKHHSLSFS
Experimental: Therefore, efforts have focused on developing new compounds with good selectivity profiles. […] Compound 8 was selective against BTK. The biochemical activities of compound 8 differed among TEC family kinases. […] The inhibitory potential of compound 8 differed between members of the EGFR family. […] The inhibitory activity of compound 8 against JAK3 was also low.
Kinase enzymatic assays for BTK, BMX, TXK, TEC, ITK, EGFR, ERBB2, ERBB4, and JAK3 were performed at Reaction Biology Corporation (www.reactionbiology.com, Malvern, PA, USA) using the HotSpot assay platform. Briefly, specific kinase/substrate pairs and the required cofactors were prepared in a reaction buffer comprising 20 mM HEPES (pH 7.5), 10 mM MgCl2, 1 mM EGTA, 0.02% Brij35, 0.02 mg/mL BSA, 0.1 mM Na3VO4, 2 mM DTT, and 1% DMSO. The compounds were added to the reaction mixture and allowed to incubate. Approximately 20 min later, a mixture of ATP (Sigma-Aldrich, St. Louis, MO, USA) and ^33P ATP (PerkinElmer, Waltham, MA, USA) was added to the reaction mixture at a final concentration of 10 μM. The reactions were performed at room temperature for 120 min; subsequently, the reactions were spotted onto P81 ion exchange filter papers (Whatman Inc., Maidstone, UK). Any unbound phosphate was removed by thoroughly washing the filter papers with 0.75% phosphoric acid. […]

[1] = system: collagen-induced arthritis (CIA); experiment: Murine model of collagen-induced arthritis (CIA); type: in vivo
Experimental: The in vivo efficacy of compound 8 was evaluated in a murine inflammatory model of collagen-induced arthritis (CIA). The study included four groups: a vehicle-treated control group and three treatment groups. The treatment groups comprised a dexamethasone-treated group, in which dexamethasone served as the positive control, and two treatment groups, in which animals were treated with compound 8 at doses of 10 and 50 mg/kg. Compound 8 was administered once daily for 15 days by oral gavage, and the in vivo efficacy was evaluated by measuring the clinical score and foot volume. […] There were no significant changes in the body weights of animals in all the treatment groups (data not shown) during treatment.
The animal study was approved by the Institutional Animal Care and Use Committee (IACUC) of the Korea Research Institute of Bioscience and Biotechnology on March 15, 2017, under approval number KRIBB-AEC-17090. Male DBA1/JNCrli mice (7 weeks old) were purchased from Japan CRL, Inc. The mice were housed in specific pathogen-free (SPF) conditions and were allowed ad libitum access to food and water. After 7 days of acclimatization, the mice were immunized with 0.05 mL of a type II collagen emulsion (Hooke Kit^TM Chicken Collagen, Cat. No. EK-0210 from Hooke) and Freund’s complete adjuvant by subcutaneous injection at 1.5 cm distal from the base of the tail. After 21 days, the immunized mice were administered a booster injection with 0.05 mL of a type II collagen emulsion (Hooke Kit^TM Chicken Collagen, Cat. No. EK-0211 from Hooke) and Freund’s incomplete adjuvant. The emulsions were prepared according to the manufacturer’s instructions. On day 21, the mice with CIA were randomized into four groups. The animals in the four groups were administered either 0.3 mg/kg dexamethasone (n = 5), 10 mg/kg compound 8 (n = 5), 50 mg/kg compound 8 (n = 5), or vehicle (n = 5), once a day, for […], orally. The vehicle, in which all test compounds were suspended, comprised DMAC (10%), Tween 80 (10%), and DW (80%). Clinical arthritis scores and body weights were assessed three times per week for 15 days. The paw volumes were measured using a LE7500 plethysmometer (Panlab, Barcelona, Spain) on days 0 and 42.

C=CC(=O)O[C@H]1Cc2cc3ccc(=O)oc3cc2OC1(C)C [Compound 8, (7S)-(+)-Acrylic acid, 8,8-dimethyl-2-oxo-6,7-dihydro-2H,8H-pyrano [3,2-g]chromen-7-yl ester]
inhibitory activity against JAK3 (in words) (JAK3): low | inhibition at 10 µM (JAK3; 10 µM, mean of two experiments): 13.2% | toxicity ([1]; mice with CIA, 10 and 50 mg/kg oral): no obvious toxicity | efficacy compared with dexamethasone ([1]; mice, 50 mg/kg oral, dexamethasone 0.3 mg/kg): comparable to that of dexamethasone at 0.3 mg/kg | clinical scores vs control ([1]; mice, 10 and 50 mg/kg, daily oral, t-test): differed significantly from those with the control | severity of CIA (clinical score and foot volume) ([1]; mice, 10 and 50 mg/kg, once daily, oral gavage, 15 days): significantly reduced the severity of CIA in a dose-dependent manner
